Test results reported in PubChem BioAssay AID2060509 (Molecular Pharmacology Branch, DTP, NCI, 2025).

Tested on: 485176-168-R4-J1-PDC spheroids with HUVEC/MSC, viability
Test: Anticancer human tumor 485176-168-R4-J1-PDC patient-derived pancreatic adenocarcinoma cell line growth inhibition [GQUAD]
Settings: for IC50: curve of first compound; for viability, T/C: stronger effect = lower value
Outline: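 Tumor cells were grown as complex spheroids with HUVEC endothelial cells and mesenchymal stem cells as stroma. G-quadruplex stabilizers were combined with targeted agents over half-log dilutions from near the clinical Cmax, or from 10 microM.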

[1] = second compound 0.0316 µM, first compound 0.0316 µM
[2] = second compound 0.0316 µM, first compound 0.1 µM
[3] = second compound 0.0316 µM, first compound 0.316 µM
[4] = second compound 0.0316 µM, first compound 1 µM
[5] = second compound 0.0316 µM, first compound 3.16 µM
[6] = second compound 0.0316 µM, first compound 10 µM
[7] = second compound 0.1 µM, first compound 0.0316 µM
[8] = second compound 0.1 µM, first compound 0.1 µM
[9] = second compound 0.1 µM, first compound 0.316 µM
[10] = second compound 0.1 µM, first compound 1 µM
[11] = second compound 0.1 µM, first compound 3.16 µM
[12] = second compound 0.1 µM, first compound 10 µM
[13] = second compound 0.316 µM, first compound 0.0316 µM
[14] = second compound 0.316 µM, first compound 0.1 µM
[15] = second compound 0.316 µM, first compound 0.316 µM
[16] = second compound 0.316 µM, first compound 1 µM
[17] = second compound 0.316 µM, first compound 3.16 µM
[18] = second compound 0.316 µM, first compound 10 µM
[19] = second compound 1 µM, first compound 0.0316 µM
[20] = second compound 1 µM, first compound 0.1 µM
[21] = second compound 1 µM, first compound 0.316 µM
[22] = second compound 1 µM, first compound 1 µM
[23] = second compound 1 µM, first compound 3.16 µM
[24] = second compound 1 µM, first compound 10 µM
[25] = second compound 3.16 µM, first compound 0.0316 µM
[26] = second compound 3.16 µM, first compound 0.1 µM
[27] = second compound 3.16 µM, first compound 0.316 µM
[28] = second compound 3.16 µM, first compound 1 µM
[29] = second compound 3.16 µM, first compound 3.16 µM
[30] = second compound 3.16 µM, first compound 10 µM
[31] = second compound 10 µM, first compound 0.0316 µM
[32] = second compound 10 µM, first compound 0.1 µM
[33] = second compound 10 µM, first compound 0.316 µM
[34] = second compound 10 µM, first compound 1 µM
[35] = second compound 10 µM, first compound 3.16 µM
[36] = second compound 10 µM, first compound 10 µM
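Further: spheroids exposed to compounds for seven days before readout.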
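Wherever viability, T/C is given: percent viability relative to DMSO vehicle control wells as 100%.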

In the case of `COc1cc(C2c3cc4c(cc3C(OC3OC5COC(C)OC5C(O)C3O)C3COC(=O)C23)OCO4)cc(OC)c1O` (centres undefined) + Cc1cnc(CNC(=O)c2c(=O)c3ccc(N4CCCN(C)CC4)nc3n3c2sc2ccccc23)cn1, the IC50 (second compound 0.0316 µM) is reported as 322 nM, the IC50 (second compound 0.1 µM) is reported as 171 nM and the IC50 (second compound 0.316 µM) is reported as 123 nM. For the same compound, the IC50 (second compound 1 µM) was < 31.6 nM, the IC50 (second compound 3.16 µM) was < 31.6 nM and the IC50 (second compound 10 µM) was < 31.6 nM. It also gave a viability, T/C [1] of 87.9%, a viability, T/C [2] of 63.1% and a viability, T/C [3] of 49.7%. It also gave a viability, T/C [4] of 38.1%, a viability, T/C [5] of 21% and a viability, T/C [6] of 8.67%. For the same compound, the viability, T/C [7] was 65.4%, the viability, T/C [8] was 55.4% and the viability, T/C [9] was 40.6%. It also gave a viability, T/C [10] of 36%, a viability, T/C [11] of 22.3% and a viability, T/C [12] of 8.6%. The viability, T/C [13] was 55.6%, the viability, T/C [14] was 53.6% and the viability, T/C [15] was 38.2%. It also gave a viability, T/C [16] of 41.3%, a viability, T/C [17] of 24.3% and a viability, T/C [18] of 8.95%. For the same compound, the viability, T/C [19] was 56%, the viability, T/C [20] was 41.8% and the viability, T/C [21] was 47.4%. For the same compound, the viability, T/C [22] was 41.5%, the viability, T/C [23] was 18.4% and the viability, T/C [24] was 9.08%. It also gave a viability, T/C [25] of 49.9%, a viability, T/C [26] of 33.8% and a viability, T/C [27] of 35.7%. It also gave a viability, T/C [28] of 34.8%, a viability, T/C [29] of 22.8% and a viability, T/C [30] of 8.98%. The viability, T/C [31] was 42.4%, the viability, T/C [32] was 38.9% and the viability, T/C [33] was 39.1%. It also gave a viability, T/C [34] of 33.3%, a viability, T/C [35] of 18.1% and a viability, T/C [36] of 3.75%.
Compound `COc1cc(C2c3cc4c(cc3C(OC3OC5COC(C)OC5C(O)C3O)C3COC(=O)C23)OCO4)cc(OC)c1O` (centres undefined) + Cc1[nH]c2ccc(F)cc2c1-c1nc2c3cccnc3c3ncccc3c2[nH]1 has an IC50 (second compound 0.0316 µM) of 317 nM, an IC50 (second compound 0.1 µM) of 266 nM and an IC50 (second compound 0.316 µM) of 650 nM. The IC50 (second compound 1 µM) was 403 nM, the IC50 (second compound 3.16 µM) was 344 nM and the IC50 (second compound 10 µM) was 344 nM. It also gave a viability, T/C [1] of 89.3%, a viability, T/C [2] of 63% and a viability, T/C [3] of 43.9%. The viability, T/C [4] was 43%, the viability, T/C [5] was 29.5% and the viability, T/C [6] was 12.7%. For the same compound, the viability, T/C [7] was 92.3%, the viability, T/C [8] was 68.7% and the viability, T/C [9] was 37.5%. For the same compound, the viability, T/C [10] was 42.1%, the viability, T/C [11] was 24% and the viability, T/C [12] was 12.5%. The viability, T/C [13] was 86.1%, the viability, T/C [14] was 97.7% and the viability, T/C [15] was 52.9%. It also gave a viability, T/C [16] of 44.4%, a viability, T/C [17] of 29.4% and a viability, T/C [18] of 13%. For the same compound, the viability, T/C [19] was 89.6%, the viability, T/C [20] was 67.7% and the viability, T/C [21] was 47.4%. The viability, T/C [22] was 44.5%, the viability, T/C [23] was 24.9% and the viability, T/C [24] was 15.1%. The viability, T/C [25] was 77.3%, the viability, T/C [26] was 65.7% and the viability, T/C [27] was 43.6%. For the same compound, the viability, T/C [28] was 42.8%, the viability, T/C [29] was 28.7% and the viability, T/C [30] was 13%. The viability, T/C [31] was 96.2%, the viability, T/C [32] was 69.9% and the viability, T/C [33] was 44%. For the same compound, the viability, T/C [34] was 44.8%, the viability, T/C [35] was 24.9% and the viability, T/C [36] was 13.2%.
